Species on record: Rattus norvegicus
Assay: Open TG-GATES - Regimen: Single
Assay type: toxicity, organism-based, Sprague-Dawley
Parameters: regimen Single, gender Male, age 6 weeks
Details: in vivo, po, 10 mg/kg, route gavage, dose level Low; for APTT / Bas / Eos / Fbg / Hb / Ht / Lym / MCH / MCHC / MCV / Mono / Neu / PT / Plat / RBC / Ret / WBC: tissue Blood; for KIDNEY_L / KIDNEY_R / KIDNEY_TOTAL: tissue Kidney; for LIVER: tissue Liver; for A/G / ALP / ALT / AST / BUN / CRE / Ca / Cl / DBIL / GLC / IP / K / LDH / Na / PL / RALB / TBIL / TC / TG / TP / gamma-GTP: tissue Plasma

Q: For `CC1=C(/C=C/C(C)=C/C=C/C(C)=C/CO)C(C)(C)CCC1` [RETINOL], which TERMINAL_BW (3 h) is on record?
A: 201.8 g

Q: What about the APTT (3 h) of the same compound?
A: 21.9 s

Q: What about the Bas (3 h) of the same compound?
A: 0%

Q: And the Eos (3 h)?
A: 0.8%

Q: What about the Fbg (3 h) of the same compound?
A: 307.4 mg/dL

Q: And the Hb (3 h)?
A: 13.1 g/dL

Q: What about the Ht (3 h) of the same compound?
A: 37.7%

Q: What about the Lym (3 h) of the same compound?
A: 81.4%

Q: What about the MCH (3 h) of the same compound?
A: 21.5 pg

Q: What about the MCHC (3 h) of the same compound?
A: 34.6%

Q: And the MCV (3 h)?
A: 62.2 fL

Q: What about the Mono (3 h) of the same compound?
A: 2.6%

Q: What about the Neu (3 h) of the same compound?
A: 14.8%

Q: What about the PT (3 h) of the same compound?
A: 15.9 s

Q: And the Plat (3 h)?
A: 124.2 x10_4/uL

Q: What about the RBC (3 h) of the same compound?
A: 606.4 x10_4/ul

Q: And the Ret (3 h)?
A: 8.8%

Q: And the WBC (3 h)?
A: 95.9 x10_2/uL

Q: And the KIDNEY_L (3 h)?
A: 0.9 g

Q: And the KIDNEY_R (3 h)?
A: 0.9 g

Q: What about the KIDNEY_TOTAL (3 h) of the same compound?
A: 1.8 g

Q: What about the LIVER (3 h) of the same compound?
A: 9.3 g

Q: What about the A/G (3 h) of the same compound?
A: 1.3

Q: What about the ALP (3 h) of the same compound?
A: 1940 IU/L

Q: And the ALT (3 h)?
A: 41.2 IU/L

Q: And the AST (3 h)?
A: 75.2 IU/L

Q: What about the BUN (3 h) of the same compound?
A: 13.4 mg/dL

Q: What about the CRE (3 h) of the same compound?
A: 0.1 mg/dL

Q: What about the Ca (3 h) of the same compound?
A: 10.8 mg/dL

Q: What about the Cl (3 h) of the same compound?
A: 106.6 meq/L

Q: And the DBIL (3 h)?
A: 0 mg/dL

Q: What about the GLC (3 h) of the same compound?
A: 171.6 mg/dL

Q: What about the IP (3 h) of the same compound?
A: 8.6 mg/dL

Q: What about the K (3 h) of the same compound?
A: 4.1 meq/L

Q: And the LDH (3 h)?
A: 253.6 IU/L

Q: And the Na (3 h)?
A: 141.6 meq/L

Q: What about the PL (3 h) of the same compound?
A: 160.6 mg/dL

Q: What about the RALB (3 h) of the same compound?
A: 3.2 g/dL

Q: What about the TBIL (3 h) of the same compound?
A: 0.006 mg/dL

Q: And the TC (3 h)?
A: 81.2 mg/dL

Q: What about the TG (3 h) of the same compound?
A: 123.4 mg/dL

Q: What about the TP (3 h) of the same compound?
A: 5.6 g/dL

Q: What about the gamma-GTP (3 h) of the same compound?
A: 2.2 IU/L

Q: What about the TERMINAL_BW (6 h) of the same compound?
A: 200 g

Q: And the APTT (6 h)?
A: 21 s

Q: What about the Bas (6 h) of the same compound?
A: 0%

Q: And the Eos (6 h)?
A: 1%

Q: What about the Fbg (6 h) of the same compound?
A: 312 mg/dL

Q: What about the Hb (6 h) of the same compound?
A: 13.5 g/dL

Q: What about the Ht (6 h) of the same compound?
A: 39.4%

Q: And the Lym (6 h)?
A: 80.4%

Q: What about the MCH (6 h) of the same compound?
A: 21.4 pg

Q: What about the MCHC (6 h) of the same compound?
A: 34.3%

Q: What about the MCV (6 h) of the same compound?
A: 62.3 fL

Q: And the Mono (6 h)?
A: 2.6%

Q: And the Neu (6 h)?
A: 15.4%

Q: And the PT (6 h)?
A: 15.6 s

Q: And the Plat (6 h)?
A: 119.1 x10_4/uL

Q: And the RBC (6 h)?
A: 632.2 x10_4/ul

Q: What about the Ret (6 h) of the same compound?
A: 8.1%

Q: What about the WBC (6 h) of the same compound?
A: 81.2 x10_2/uL

Q: And the KIDNEY_L (6 h)?
A: 0.9 g

Q: What about the KIDNEY_R (6 h) of the same compound?
A: 0.9 g

Q: And the KIDNEY_TOTAL (6 h)?
A: 1.9 g

Q: What about the LIVER (6 h) of the same compound?
A: 8.6 g

Q: And the A/G (6 h)?
A: 1.3

Q: What about the ALP (6 h) of the same compound?
A: 1760 IU/L

Q: And the ALT (6 h)?
A: 35.8 IU/L

Q: And the AST (6 h)?
A: 69.2 IU/L

Q: What about the BUN (6 h) of the same compound?
A: 9.4 mg/dL

Q: What about the CRE (6 h) of the same compound?
A: 0.1 mg/dL

Q: What about the Ca (6 h) of the same compound?
A: 11 mg/dL

Q: And the Cl (6 h)?
A: 107.4 meq/L

Q: And the DBIL (6 h)?
A: 0.008 mg/dL

Q: And the GLC (6 h)?
A: 180 mg/dL

Q: What about the IP (6 h) of the same compound?
A: 10.3 mg/dL

Q: And the K (6 h)?
A: 4.3 meq/L

Q: And the LDH (6 h)?
A: 223 IU/L

Q: What about the Na (6 h) of the same compound?
A: 142.8 meq/L

Q: What about the PL (6 h) of the same compound?
A: 143.8 mg/dL

Q: What about the RALB (6 h) of the same compound?
A: 3.1 g/dL

Q: And the TBIL (6 h)?
A: 0.016 mg/dL

Q: What about the TC (6 h) of the same compound?
A: 74.4 mg/dL

Q: What about the TG (6 h) of the same compound?
A: 98.4 mg/dL

Q: And the TP (6 h)?
A: 5.4 g/dL

Q: What about the gamma-GTP (6 h) of the same compound?
A: 0.8 IU/L

Q: What about the TERMINAL_BW (9 h) of the same compound?
A: 196.8 g

Q: And the APTT (9 h)?
A: 21.8 s

Q: What about the Bas (9 h) of the same compound?
A: 0%

Q: What about the Eos (9 h) of the same compound?
A: 0.6%

Q: What about the Fbg (9 h) of the same compound?
A: 296.8 mg/dL

Q: And the Hb (9 h)?
A: 13.2 g/dL

Q: What about the Ht (9 h) of the same compound?
A: 38.3%

Q: What about the Lym (9 h) of the same compound?
A: 78%

Q: What about the MCH (9 h) of the same compound?
A: 21.6 pg

Q: What about the MCHC (9 h) of the same compound?
A: 34.4%

Q: What about the MCV (9 h) of the same compound?
A: 62.9 fL

Q: What about the Mono (9 h) of the same compound?
A: 2.4%

Q: What about the Neu (9 h) of the same compound?
A: 18.4%

Q: What about the PT (9 h) of the same compound?
A: 15.6 s

Q: And the Plat (9 h)?
A: 128.6 x10_4/uL

Q: And the RBC (9 h)?
A: 610.2 x10_4/ul

Q: And the Ret (9 h)?
A: 7.6%

Q: What about the WBC (9 h) of the same compound?
A: 92.3 x10_2/uL

Q: And the KIDNEY_L (9 h)?
A: 0.9 g

Q: What about the KIDNEY_R (9 h) of the same compound?
A: 0.9 g

Q: What about the KIDNEY_TOTAL (9 h) of the same compound?
A: 1.8 g

Q: And the LIVER (9 h)?
A: 7.8 g

Q: What about the A/G (9 h) of the same compound?
A: 1.3

Q: And the ALP (9 h)?
A: 1939.6 IU/L

Q: What about the ALT (9 h) of the same compound?
A: 34.8 IU/L

Q: What about the AST (9 h) of the same compound?
A: 70.6 IU/L

Q: And the BUN (9 h)?
A: 9.6 mg/dL

Q: And the CRE (9 h)?
A: 0.1 mg/dL

Q: What about the Ca (9 h) of the same compound?
A: 10.9 mg/dL

Q: What about the Cl (9 h) of the same compound?
A: 107.4 meq/L

Q: And the DBIL (9 h)?
A: 0.004 mg/dL

Q: And the GLC (9 h)?
A: 187 mg/dL

Q: What about the IP (9 h) of the same compound?
A: 10.6 mg/dL

Q: What about the K (9 h) of the same compound?
A: 4 meq/L

Q: And the LDH (9 h)?
A: 242.8 IU/L

Q: And the Na (9 h)?
A: 141.4 meq/L

Q: What about the PL (9 h) of the same compound?
A: 127.4 mg/dL

Q: And the RALB (9 h)?
A: 3 g/dL

Q: And the TBIL (9 h)?
A: 0.012 mg/dL

Q: What about the TC (9 h) of the same compound?
A: 69.2 mg/dL

Q: And the TG (9 h)?
A: 50.2 mg/dL

Q: And the TP (9 h)?
A: 5.3 g/dL

Q: And the gamma-GTP (9 h)?
A: 2.8 IU/L

Q: What about the TERMINAL_BW (24 h) of the same compound?
A: 208.4 g

Q: And the APTT (24 h)?
A: 21.5 s

Q: And the Bas (24 h)?
A: 0%

Q: And the Eos (24 h)?
A: 1%

Q: And the Fbg (24 h)?
A: 273.4 mg/dL

Q: What about the Hb (24 h) of the same compound?
A: 13.2 g/dL

Q: What about the Ht (24 h) of the same compound?
A: 38.4%

Q: And the Lym (24 h)?
A: 80.2%

Q: And the MCH (24 h)?
A: 21.4 pg

Q: What about the MCHC (24 h) of the same compound?
A: 34.5%

Q: And the MCV (24 h)?
A: 62.2 fL

Q: What about the Mono (24 h) of the same compound?
A: 3.2%

Q: What about the Neu (24 h) of the same compound?
A: 15%

Q: And the PT (24 h)?
A: 16.2 s

Q: What about the Plat (24 h) of the same compound?
A: 123.1 x10_4/uL

Q: What about the RBC (24 h) of the same compound?
A: 618 x10_4/ul

Q: What about the Ret (24 h) of the same compound?
A: 7.5%

Q: What about the WBC (24 h) of the same compound?
A: 81 x10_2/uL

Q: What about the KIDNEY_L (24 h) of the same compound?
A: 1 g

Q: And the KIDNEY_R (24 h)?
A: 1 g

Q: What about the KIDNEY_TOTAL (24 h) of the same compound?
A: 2 g

Q: And the LIVER (24 h)?
A: 9.8 g

Q: What about the A/G (24 h) of the same compound?
A: 1.4

Q: And the ALP (24 h)?
A: 1455.4 IU/L

Q: What about the ALT (24 h) of the same compound?
A: 44.6 IU/L

Q: What about the AST (24 h) of the same compound?
A: 78.4 IU/L

Q: What about the BUN (24 h) of the same compound?
A: 16.8 mg/dL

Q: What about the CRE (24 h) of the same compound?
A: 0.2 mg/dL

Q: What about the Ca (24 h) of the same compound?
A: 10.6 mg/dL

Q: And the Cl (24 h)?
A: 106.8 meq/L

Q: And the DBIL (24 h)?
A: 0.002 mg/dL

Q: What about the GLC (24 h) of the same compound?
A: 187.4 mg/dL

Q: And the IP (24 h)?
A: 6.9 mg/dL

Q: And the K (24 h)?
A: 4.5 meq/L

Q: What about the LDH (24 h) of the same compound?
A: 318.8 IU/L

Q: What about the Na (24 h) of the same compound?
A: 141.6 meq/L

Q: What about the PL (24 h) of the same compound?
A: 135.2 mg/dL

Q: What about the RALB (24 h) of the same compound?
A: 3.1 g/dL

Q: What about the TBIL (24 h) of the same compound?
A: 0.002 mg/dL

Q: And the TC (24 h)?
A: 65 mg/dL

Q: What about the TG (24 h) of the same compound?
A: 114.6 mg/dL

Q: What about the TP (24 h) of the same compound?
A: 5.4 g/dL

Q: What about the gamma-GTP (24 h) of the same compound?
A: 1.6 IU/L
